Assays:
wheat = test: Test B preemergence/postemergence greenhouse plant response rating 0 to 10; format: in vivo, Triticum aestivum; conditions: for Plant response rating, Wheat: 0 to 10 scale
Method in brief: (§1)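 Postemergence treatment of plants two to eighteen cm tall ran alongside preemergence treatment of planted seed, each using compound in a non-phytotoxic solvent.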

barnyardgrass = test: as above; format: in vivo, Echinochloa crus-galli; conditions: for Plant response rating, Barnyardgrass: 0 to 10 scale
Method in brief: as §1

wild oat = test: as above; format: in vivo, Avena fatua; conditions: for Plant response rating, Wild oat: 0 to 10 scale
Method in brief: as §1

rape = test: Test C preemergence/postemergence greenhouse plant response rating 0 to 100; format: in vivo, Brassica napus; conditions: for Plant response rating, Rape: 0 to 100 scale
Method in brief: (§2)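 Compounds in non-phytotoxic solvent applied preemergence to sandy loam one day after planting, postemergence at the 1–4 leaf stage, or to ~2.5 cm floodwater over silt loam.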

blackgrass = test: as above; format: in vivo, Alopecurus myosuroides; conditions: for Plant response rating, Blackgrass: 0 to 100 scale
Method in brief: as §2

rice [1] = test: Test B preemergence/postemergence greenhouse plant response rating 0 to 10; format: in vivo, Oryza sativa; conditions: for Plant response rating, Rice: 0 to 10 scale
Method in brief: as §1

morningglory = test: as above; format: in vivo, Ipomoea hederacea; conditions: for Plant response rating, Morningglory: 0 to 10 scale
Method in brief: as §1

umbrella sedge = test: Test C flood test plant response rating 0 to 100; format: in vivo, Cyperus difformis; conditions: for Plant response rating Umbrella sedge: flood test species listed under POSTEMERGENCE, 0 to 100 scale
Method in brief: as §2

crabgrass = test: Test C preemergence/postemergence greenhouse plant response rating 0 to 100; format: in vivo, Digitaria sanguinalis; conditions: for Plant response rating, Crabgrass: 0 to 100 scale
Method in brief: as §2

cocklebur = test: Test B preemergence/postemergence greenhouse plant response rating 0 to 10; format: in vivo, Xanthium pensylvanicum; conditions: for Plant response rating, Cocklebur: 0 to 10 scale
Method in brief: as §1

sorghum = test: as above; format: in vivo, Sorghum bicolor; conditions: for Plant response rating, Sorghum: 0 to 10 scale
Method in brief: as §1

rice [2] = test: Test C flood test plant response rating 0 to 100; format: in vivo, Oryza sativa; conditions: for Plant response rating Rice Japonica: flood test species listed under POSTEMERGENCE, 0 to 100 scale
Method in brief: as §2

cotton = test: Test B preemergence/postemergence greenhouse plant response rating 0 to 10; format: in vivo, Gossypium hirsutum; conditions: for Plant response rating, Cotton: 0 to 10 scale
Method in brief: as §1

[3] = POSTEMERGENCE section, flood test, Rate 1 g/ha
[4] = POSTEMERGENCE section, flood test, Rate 4 g/ha
[5] = Rate 16 g/ha, under POSTEMERGENCE head (flood test species)
[6] = POSTEMERGENCE section, flood test, Rate 2 g/ha
[7] = Rate 8 g/ha, under POSTEMERGENCE head (flood test species)
[8] = Rate 31 g/ha, under POSTEMERGENCE head (flood test species)

COCN1C(=O)COc2cc(F)c(-c3nn4c(c3Cl)CCCC4)cc21 [Compound 55]
50: Plant response rating (0 to 100), Blackgrass (blackgrass; Rate 16 g/ha, POSTEMERGENCE)
60: Plant response rating (0 to 100), Rape (rape; POSTEMERGENCE, Rate 1 g/ha) | Plant response rating, Blackgrass (blackgrass; POSTEMERGENCE, 62 g/ha)
90: Plant response rating Umbrella sedge (umbrella sedge; 62 g/ha) | Plant response rating Rice Japonica (rice [2]; 62 g/ha)
10: Plant response rating, Morningglory (morningglory; POSTEMERGENCE, Rate 10 g/ha) | Plant response rating, Morningglory (morningglory; POSTEMERGENCE, Rate 50 g/ha) | Plant response rating (0 to 100), Umbrella sedge (umbrella sedge; [3]) | Plant response rating (0 to 100), Crabgrass (crabgrass; POSTEMERGENCE, Rate 1 g/ha) | Plant response rating (0 to 100), Crabgrass (crabgrass; POSTEMERGENCE, Rate 4 g/ha) | Plant response rating, Cocklebur (cocklebur; POSTEMERGENCE, Rate 10 g/ha) | Plant response rating, Cocklebur (cocklebur; POSTEMERGENCE, Rate 50 g/ha) | Plant response rating (0 to 100), Rice Japonica (rice [2]; [3]) | Plant response rating, Cotton (cotton; POSTEMERGENCE, Rate 10 g/ha) | Plant response rating, Cotton (cotton; POSTEMERGENCE, Rate 50 g/ha)
7: Plant response rating, Wild oat (wild oat; POSTEMERGENCE, Rate 50 g/ha)
4: Plant response rating, Wheat (wheat; PREEMERGENCE, Rate 50 g/ha) | Plant response rating, Rice (rice [1]; POSTEMERGENCE, Rate 50 g/ha) | Plant response rating, Sorghum (sorghum; POSTEMERGENCE, Rate 50 g/ha)
2: Plant response rating, Barnyardgrass (barnyardgrass; POSTEMERGENCE, Rate 10 g/ha) | Plant response rating, Cocklebur (cocklebur; PREEMERGENCE, Rate 50 g/ha)
70: Plant response rating (0 to 100), Umbrella sedge (umbrella sedge; [5]) | Plant response rating (0 to 100), Rice Japonica (rice [2]; [5])
40: Plant response rating (0 to 100), Blackgrass (blackgrass; POSTEMERGENCE, Rate 4 g/ha) | Plant response rating, Crabgrass (crabgrass; POSTEMERGENCE, 62 g/ha)
8: Plant response rating, Wheat (wheat; POSTEMERGENCE, Rate 10 g/ha) | Plant response rating, Morningglory (morningglory; PREEMERGENCE, Rate 50 g/ha)
9: Plant response rating, Wild oat (wild oat; PREEMERGENCE, Rate 50 g/ha)
100: Plant response rating, Rape (rape; POSTEMERGENCE, 62 g/ha) | Plant response rating (0 to 100), Rape (rape; POSTEMERGENCE, Rate 4 g/ha) | Plant response rating (0 to 100), Rape (rape; Rate 16 g/ha, POSTEMERGENCE)
0: Plant response rating, Barnyardgrass (barnyardgrass; PREEMERGENCE, Rate 10 g/ha) | Plant response rating, Rice (rice [1]; PREEMERGENCE, Rate 50 g/ha) | Plant response rating, Sorghum (sorghum; PREEMERGENCE, Rate 50 g/ha)
3: Plant response rating, Rice (rice [1]; POSTEMERGENCE, Rate 10 g/ha) | Plant response rating, Sorghum (sorghum; POSTEMERGENCE, Rate 10 g/ha)
1: Plant response rating, Cotton (cotton; PREEMERGENCE, Rate 50 g/ha)
30: Plant response rating (0 to 100), Blackgrass (blackgrass; POSTEMERGENCE, Rate 1 g/ha) | Plant response rating (0 to 100), Umbrella sedge (umbrella sedge; [4]) | Plant response rating (0 to 100), Crabgrass (crabgrass; Rate 16 g/ha, POSTEMERGENCE) | Plant response rating (0 to 100), Rice Japonica (rice [2]; [4])
6: Plant response rating, Wheat (wheat; POSTEMERGENCE, Rate 50 g/ha) | Plant response rating, Barnyardgrass (barnyardgrass; POSTEMERGENCE, Rate 50 g/ha) | Plant response rating, Barnyardgrass (barnyardgrass; PREEMERGENCE, Rate 50 g/ha) | Plant response rating, Wild oat (wild oat; POSTEMERGENCE, Rate 10 g/ha) | Plant response rating, Cotton (cotton; PREEMERGENCE, Rate 10 g/ha)

COCOc1cc(-c2nn3c(c2Cl)CCCC3)c(F)cc1Cl [Compound 58]
9: Plant response rating, Barnyardgrass (barnyardgrass; Rate 200 g/ha, POSTEMERGENCE) | Plant response rating (0 to 10 scale), Wild oat (wild oat; PREEMERGENCE, Rate 200 g/ha) | Plant response rating, Wild oat (wild oat; Rate 200 g/ha, POSTEMERGENCE) | Plant response rating, Morningglory (morningglory; POSTEMERGENCE, Rate 50 g/ha) | Plant response rating (0 to 10 scale), Cocklebur (cocklebur; PREEMERGENCE, Rate 200 g/ha)
65: Plant response rating (0 to 100), Blackgrass (blackgrass; Rate 31 g/ha, POSTEMERGENCE)
50: Plant response rating (0 to 100), Rape (rape; Rate 8 g/ha, POSTEMERGENCE) | Plant response rating (0 to 100), Blackgrass (blackgrass; Rate 8 g/ha, POSTEMERGENCE) | Plant response rating (0 to 100), Crabgrass (crabgrass; Rate 31 g/ha, PREEMERGENCE) | Plant response rating Rice Japonica (rice [2]; 125 g/ha)
4: Plant response rating, Barnyardgrass (barnyardgrass; PREEMERGENCE, Rate 50 g/ha) | Plant response rating, Rice (rice [1]; POSTEMERGENCE, Rate 50 g/ha) | Plant response rating, Morningglory (morningglory; PREEMERGENCE, Rate 50 g/ha) | Plant response rating (0 to 10 scale), Morningglory (morningglory; PREEMERGENCE, Rate 200 g/ha) | Plant response rating, Sorghum (sorghum; POSTEMERGENCE, Rate 50 g/ha)
60: Plant response rating (0 to 100), Blackgrass (blackgrass; Rate 31 g/ha, PREEMERGENCE) | Plant response rating (0 to 100), Crabgrass (crabgrass; Rate 31 g/ha, POSTEMERGENCE)
0: Plant response rating (0 to 100), Rape (rape; PREEMERGENCE, Rate 2 g/ha) | Plant response rating (0 to 100), Rape (rape; Rate 8 g/ha, PREEMERGENCE) | Plant response rating (0 to 100), Blackgrass (blackgrass; PREEMERGENCE, Rate 2 g/ha) | Plant response rating, Rice (rice [1]; PREEMERGENCE, Rate 50 g/ha) | Plant response rating (0 to 10 scale), Rice (rice [1]; PREEMERGENCE, Rate 200 g/ha) | Plant response rating (0 to 100), Crabgrass (crabgrass; PREEMERGENCE, Rate 2 g/ha) | Plant response rating (0 to 100), Crabgrass (crabgrass; Rate 8 g/ha, PREEMERGENCE) | Plant response rating, Cocklebur (cocklebur; PREEMERGENCE, Rate 50 g/ha) | Plant response rating (0 to 100), Rice Japonica (rice [2]; [6]) | Plant response rating (0 to 100), Rice Japonica (rice [2]; [7]) | Plant response rating (0 to 100), Rice Japonica (rice [2]; [8]) | Plant response rating, Cotton (cotton; PREEMERGENCE, Rate 50 g/ha) | Plant response rating (0 to 10 scale), Cotton (cotton; PREEMERGENCE, Rate 200 g/ha)
20: Plant response rating (0 to 100), Blackgrass (blackgrass; POSTEMERGENCE, Rate 2 g/ha) | Plant response rating (0 to 100), Blackgrass (blackgrass; Rate 8 g/ha, PREEMERGENCE) | Plant response rating (0 to 100), Crabgrass (crabgrass; POSTEMERGENCE, Rate 2 g/ha)
7: Plant response rating, Wheat (wheat; POSTEMERGENCE, Rate 50 g/ha) | Plant response rating (0 to 10 scale), Wheat (wheat; PREEMERGENCE, Rate 200 g/ha) | Plant response rating (0 to 10 scale), Barnyardgrass (barnyardgrass; PREEMERGENCE, Rate 200 g/ha) | Plant response rating, Wild oat (wild oat; POSTEMERGENCE, Rate 50 g/ha)
6: Plant response rating, Barnyardgrass (barnyardgrass; POSTEMERGENCE, Rate 50 g/ha) | Plant response rating, Wild oat (wild oat; PREEMERGENCE, Rate 50 g/ha) | Plant response rating, Cocklebur (cocklebur; POSTEMERGENCE, Rate 50 g/ha) | Plant response rating, Sorghum (sorghum; Rate 200 g/ha, POSTEMERGENCE)
10: Plant response rating (0 to 100), Rape (rape; Rate 31 g/ha, PREEMERGENCE) | Plant response rating, Morningglory (morningglory; Rate 200 g/ha, POSTEMERGENCE) | Plant response rating, Cocklebur (cocklebur; Rate 200 g/ha, POSTEMERGENCE) | Plant response rating, Cotton (cotton; POSTEMERGENCE, Rate 50 g/ha) | Plant response rating, Cotton (cotton; Rate 200 g/ha, POSTEMERGENCE)
30: Plant response rating (0 to 100), Rape (rape; POSTEMERGENCE, Rate 2 g/ha) | Plant response rating (0 to 100), Umbrella sedge (umbrella sedge; [7]) | Plant response rating (0 to 100), Crabgrass (crabgrass; Rate 8 g/ha, POSTEMERGENCE)
85: Plant response rating, Blackgrass (blackgrass; POSTEMERGENCE, 125 g/ha)
8: Plant response rating, Wheat (wheat; Rate 200 g/ha, POSTEMERGENCE)
25: Plant response rating (0 to 100), Umbrella sedge (umbrella sedge; [6])
100: Plant response rating, Rape (rape; POSTEMERGENCE, 125 g/ha) | Plant response rating Umbrella sedge (umbrella sedge; 125 g/ha) | Plant response rating, Crabgrass (crabgrass; PREEMERGENCE, 125 g/ha)
5: Plant response rating, Rice (rice [1]; Rate 200 g/ha, POSTEMERGENCE)
3: Plant response rating (0 to 10 scale), Sorghum (sorghum; PREEMERGENCE, Rate 200 g/ha)
2: Plant response rating, Wheat (wheat; PREEMERGENCE, Rate 50 g/ha) | Plant response rating, Sorghum (sorghum; PREEMERGENCE, Rate 50 g/ha)
70: Plant response rating, Rape (rape; PREEMERGENCE, 125 g/ha) | Plant response rating (0 to 100), Rape (rape; Rate 31 g/ha, POSTEMERGENCE) | Plant response rating, Blackgrass (blackgrass; PREEMERGENCE, 125 g/ha) | Plant response rating (0 to 100), Umbrella sedge (umbrella sedge; [8]) | Plant response rating, Crabgrass (crabgrass; POSTEMERGENCE, 125 g/ha)
